Several values for one entry are separate records, joined by “and”; a condition that tells them apart may be missing. Equal entries are not always repeated. Toxic doses and inconclusive results are not listed. Cut-off read from the data, not from the text of the source: active = T/C of 150% or more; inactive = T/C below 125%.
Tested on: L1210 leukemia ip in BDF1 mice, survival T/C
Assay: NCI In Vivo Anticancer Drug Screen. Data for tumor model L1210 Leukemia (intraperitoneal) in B6D2F1 (BDF1) mice
Conditions: endpoint: mean survival time, higher = longer survival
Summary of the method: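 Tumor cells were implanted, animals were treated, and survival was followed. The result divides the treated measurement by the vehicle-control measurement.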

[1] = dose: 100.0 mg/kg/injection, schedule: Q04DX003 (ip), vehicle: saline with Tween-80
[2] = dose: 200.0 mg/kg/injection, schedule: Q04DX003 (ip), vehicle: saline with Tween-80
[3] = dose: 75.0 mg/kg/injection, schedule: Q01DX001 (ip), vehicle: saline
[4] = dose: 150.0 mg/kg/injection, schedule: Q01DX001 (ip), vehicle: saline

Measured: T/C

O=S(NOCCCCONS(=O)c1ccccc1)c1ccccc1 (configuration not stated)
inactive: dose: 25.0 mg/kg/injection, schedule: Q01DX001 (ip), vehicle: saline with Tween-80 100 % of control | dose: 25.0 mg/kg/injection, schedule: Q04DX003 (ip), vehicle: saline with Tween-80 93 % of control | dose: 50.0 mg/kg/injection, schedule: Q01DX001 (ip), vehicle: saline with Tween-80 95 % of control | dose: 50.0 mg/kg/injection, schedule: Q01DX009 (ip), vehicle: saline with Tween-80 94 % of control and 102 % of control | dose: 50.0 mg/kg/injection, schedule: Q04DX003 (ip), vehicle: saline with Tween-80 96 % of control | dose: 100.0 mg/kg/injection, schedule: Q01DX001 (ip), vehicle: saline with Tween-80 95 % of control and 90 % of control | dose: 100.0 mg/kg/injection, schedule: Q01DX009 (ip), vehicle: saline with Tween-80 95 % of control and 96 % of control | dose: 100.0 mg/kg/injection, schedule: Q04DX002 (ip), vehicle: saline with Tween-80 98 % of control and 89 % of control | [1] 89 % of control | dose: 200.0 mg/kg/injection, schedule: Q01DX001 (ip), vehicle: saline with Tween-80 90 % of control | dose: 200.0 mg/kg/injection, schedule: Q01DX009 (ip), vehicle: saline with Tween-80 96 % of control and 92 % of control | dose: 200.0 mg/kg/injection, schedule: Q04DX002 (ip), vehicle: saline with Tween-80 100 % of control and 91 % of control | [2] 94 % of control | dose: 400.0 mg/kg/injection, schedule: Q01DX009 (ip), vehicle: saline with Tween-80 90 % of control | dose: 400.0 mg/kg/injection, schedule: Q04DX002 (ip), vehicle: saline with Tween-80 102 % of control

CCCCCOC(=O)c1cccc2c1-c1ccccc1C2=O
inactive: dose: 100.0 mg/kg/injection, schedule: Q01DX001 (ip), vehicle: other 93 % of control | dose: 200.0 mg/kg/injection, schedule: Q01DX001 (ip), vehicle: other 98 % of control | dose: 400.0 mg/kg/injection, schedule: Q01DX001 (ip), vehicle: other 93 % of control

C/C=C1\CN2CCc3c([nH]c4ccccc34)C2CC1CC(=O)N(C)C (configuration not stated)
inactive: [1] 96 % of control | [2] 88 % of control

Cc1cc(/C=N\N=C(N)N)c(C)n1-c1ccccc1
inactive: dose: 15.0 mg/kg/injection, schedule: Q01DX Z (ip), vehicle: carboxymethylcellulose (CMC) 92 % of control | dose: 30.0 mg/kg/injection, schedule: Q01DX Z (ip), vehicle: carboxymethylcellulose (CMC) 95 % of control | dose: 60.0 mg/kg/injection, schedule: Q01DX Z (ip), vehicle: carboxymethylcellulose (CMC) 89 % of control | dose: 60.0 mg/kg/injection, schedule: Q01DX Z (oral), vehicle: carboxymethylcellulose (CMC) 106 % of control | dose: 120.0 mg/kg/injection, schedule: Q01DX Z (ip), vehicle: carboxymethylcellulose (CMC) 97 % of control | dose: 120.0 mg/kg/injection, schedule: Q01DX Z (oral), vehicle: carboxymethylcellulose (CMC) 101 % of control | dose: 240.0 mg/kg/injection, schedule: Q01DX Z (oral), vehicle: carboxymethylcellulose (CMC) 95 % of control and 100 % of control | dose: 480.0 mg/kg/injection, schedule: Q01DX Z (oral), vehicle: carboxymethylcellulose (CMC) 95 % of control and 102 % of control | dose: 960.0 mg/kg/injection, schedule: Q01DX Z (oral), vehicle: carboxymethylcellulose (CMC) 103 % of control | dose: 1920.0 mg/kg/injection, schedule: Q01DX Z (oral), vehicle: carboxymethylcellulose (CMC) 107 % of control

COc1cc2c(cc1[N+](=O)[O-])OCO2
inactive: [1] 104 % of control | [2] 97 % of control | dose: 400.0 mg/kg/injection, schedule: Q04DX003 (ip), vehicle: saline with Tween-80 98 % of control

FC(F)(F)c1nnnn1Cc1ccccc1
inactive: dose: 50.0 mg/kg/injection, schedule: Q04DX002 (ip), vehicle: saline 93 % of control | dose: 100.0 mg/kg/injection, schedule: Q04DX002 (ip), vehicle: saline 101 % of control | dose: 200.0 mg/kg/injection, schedule: Q04DX002 (ip), vehicle: saline 101 % of control

Cc1ccc(NC(=O)NCCCl)c2c1CCC2
inactive: dose: 100.0 mg/kg/injection, schedule: Q01DX001 (ip), vehicle: Klucel (hydroxypropylcellulose) (HPC) 95 % of control | dose: 200.0 mg/kg/injection, schedule: Q01DX001 (ip), vehicle: Klucel (hydroxypropylcellulose) (HPC) 92 % of control | dose: 400.0 mg/kg/injection, schedule: Q01DX001 (ip), vehicle: Klucel (hydroxypropylcellulose) (HPC) 96 % of control

CCCCNc1ccc(C(=O)OCCNC2CCCCC2)cc1
inactive: [3] 100 % of control | [4] 96 % of control

CCCCCCCCCCCCCCC(S(=O)(=O)CC)S(=O)(=O)CC
inactive: dose: 100.0 mg/kg/injection, schedule: Q04DX003 (ip), vehicle: Klucel (hydroxypropylcellulose) (HPC) 95 % of control | dose: 200.0 mg/kg/injection, schedule: Q04DX003 (ip), vehicle: Klucel (hydroxypropylcellulose) (HPC) 100 % of control | dose: 400.0 mg/kg/injection, schedule: Q04DX003 (ip), vehicle: Klucel (hydroxypropylcellulose) (HPC) 90 % of control

N/C(=N\[N+](=O)[O-])Nc1nc2ccccc2s1
inactive: dose: 100.0 mg/kg/injection, schedule: Q04DX002 (ip), vehicle: Klucel (hydroxypropylcellulose) (HPC) 113 % of control

CC(=O)NC1=C(Oc2ccc(C)cc2)C(=O)c2ccccc2C1=O
inactive: [3] 98 % of control | [4] 96 % of control
